The record followed here is patent publication US20260125356A1, “TREATMENT OF LEISHMANIASIS” (THE UNIVERSITY OF DURHAM, priority 2022, published 2026).

SMILES strings stand for the structures. Values after ≈ are worked out from the molar mass of the structure shown.

Data set [1] has as its system L. donovani promastigotes. Put plainly: L. donovani promastigote dose response assay (resazurin). Format: cell-based. Conditions: Leishmania donovani, 72 h, read-out: EC50 (L. don)/μM. On the technique in general: Resazurin is reduced to fluorescent resorufin, in cell work by metabolically active cells.
The nature of data set [2]: Kinetic solubility. Particulars: kinetic from dmso stock. From the text:
All chemicals and solvents were sourced from commercial suppliers. Buffers were made up using purified water from a MilliQ® water purification system. Biorelevant buffers (FESSIF, FASSIF and FASSGF) were purchased from Biorelevant and made up according to manufacturer's instructions. 15% FBS (heat inactivated, South American origin, ThermoFisher scientific) in PBS (Fisher Scientific) was filter sterilised (0.22 μm Fisherbrand™ Sterile PES Syringe Filter, Fisher Scientific) before use. Sodium taurocholate was purchased from Merck.
λmax was determined for each compound from the UV-Vis absorption spectrum of a 200 LIM compound solution in buffer of interest using a Varian Cary® 100 UV-Vis Spectrophotometer. A calibration curve of λmax VS concentration was obtained by serial dilution of compound from 200 μM in the buffer of interest, correcting for background buffer absorption. For each sample, a DMSO solution of compound was incubated in buffer of interest (<5% DMSO) for 2 hrs at RT. The solution was filtered (0.22 μm Fisherbrand™ Sterile PES Syringe Filter, Fisher Scientific) or centrifuged (14,500 rpm, 10 min) to remove undissolved debris and the supernatant was removed and diluted as required. The corrected UV absorption of the supernatant at Amax Was measured using a Varian Cary® 100 UV-Vis Spectrophotometer and compared to the calibration curve to determine compound solubility.

Data set [3] relates to T. cruzi epimastigotes. Put plainly: T. cruzi epimastigote dose response assay. Format: cell-based. Conditions: Trypanosoma cruzi, 72 h, read-out: EC50 (T. cruzi)/μM.
The subject of data set [4] is T. brucei bloodstream trypomastigotes. Put plainly: T. brucei bloodstream trypomastigote dose response assay. The class given is cell-based. Conditions: Trypanosoma brucei, 48 h, read-out: EC50 (T. brucei)/μM.
The subject of data set [5] is L. amazonensis intracellular amastigotes. Put plainly: Killing of intracellular amastigotes in infected peritoneal macrophages. The class given is cell-based. Conditions: Leishmania amazonensis, Peritoneal macrophage, treated 48 h, read-out: EC50 (amastigote). As for the experimental part:
Peritoneal macrophages were plated at 2×10^5/well in 24 well-plate onto circular glass coverslips with medium RPMI+10% HIFCS. After 24 h, macrophages were infected with L. amazonensis (1:10) and cultured at 37″C for 4 h and washed to remove non internalized amastigotes. At 24 h post infection, cells were treated with serial dilutions of compound 53 or Pentostam for 48 h at 37° C. in medium RPMI+5% HIFCS. Afterwards, cells were stained with Rapid Panoptic and the number of intracellular amastigotes in 100 macrophages was counted. EC50 values were calculated by non-linear regression. Means±SD (n=2);
The ability of compound 53 to kill intracellular amastigotes for cells infected with L. amazonensis was assessed and the cytotoxicity of the compound was investigated. The results are shown in FIGS. 6 to 8 and Table 8 below.

A short description of data set [6]: Cytotoxicity against macrophages (resazurin). Format: cell-based. Conditions: mouse, bone marrow-derived macrophages (BMDM), read-out: CC50 (macrophage). The procedure:
Mouse bone marrow-derived macrophages (BMDM) were plated in 96 well-plate at 1×10^5/well with medium RPMI+10% HIFCS. After 24 h, compound 53 and Pentostam were added at the indicated concentrations, and cells cultured for further 48 h with medium RPMI+5% HIFCS. […] Pentostam CC50 was from curve regression extrapolation. Means±SD (n=5);
The selectivity index (SI) was calculated by dividing the half maximal cytotoxic concentration (CC50) by the half maximal effective concentration (EC50). CC50 was extrapolated for pentostam.

Data set [7] has as its system visceral leishmaniasis. Put plainly: In vivo efficacy against experimental visceral leishmaniasis. Conditions: single dose 10 mg/kg, BALB/c mice. An excerpt: FIG. 9 evaluation of efficacy against visceral leishmaniasis in BALB/c mice in (A) the liver and (B) the spleen through Leishman donovani units (LDU) (n=4);
FIG. 10 evaluation of efficacy against visceral leishmaniasis in BALB/c mice in bone marrow (n=4);
FIG. 11 evaluation of efficacy against visceral leishmaniasis in BALB/c mice in (A) the liver and (B) the spleen through Limiting Dilution Assay (LDA) (n=4);
Mice were infected with 2×10^7 promastigotes and kept for 2 months. After 2 months mice were treated with a single dose of phosphate-buffered saline (PBS), an empty liposome formulation (E.Lip), 10 mg/kg of body weight of Drug 3R, 10 mg/kg of body weight of compound 53 (identified in the Figures as drug 10), a liposome composition comprising 10 mg/kg of body weight of Drug 3R (Lip Drug 3R) or a liposome composition comprising 10 mg/kg of body weight of compound 53 (Lip Drug 10). […] The mice were then kept for one month and then sacrificed. Infection in liver and spleen was determined through LDU and LDA (FIGS. 9 and 11), infection in bone marrow was determined by counting amastigotes/1000 cells (FIG. 10).
Liposomal compositions were prepared by incorporation of an active compound into the lipid bilayer of SA-bearing choline liposome (lipid ratio, 7:2). […]

In data set [8] the test system is L. amazonensis-GFP. Put plainly: In vivo intralesional treatment of L. amazonensis-GFP (mouse ear). Conditions: 0.4 mg in 10 μL PBS, once a week for five weeks. As for the experimental part:
FIG. 12 evaluation of the parasitic load of intralesional treatment of L. amazonensis-GFP (mouse ear) after treatment with PBS, glucantime, compound 53 (VJL), clemastine fumarate (CF) or clemastine fumarate in a polymeric nanoparticle (NP-CF);
Mice were infected with L. amazonensis and were then treated intralesionally (IL) with five doses of 10 μL PBS only (control) or 10 μL of PBS containing 0.4 mg of glucantime, compound 53 (VJL), clemastine fumarate (CF) or clemastine fumarate in a polymeric nanoparticle (NP-CF). The mice were treated once a week for five weeks.

The test system of data set [9] is S. aureus (FDA209P). Put plainly: Antibacterial MIC/growth assay, S. aureus. The class given is cell-based. Conditions: 16 hours at 37° C., absorbance 600 nm. The procedure:
(§1) DMSO was used as a solvent control at a maximum final concentration of 10% (a greater percentage than would be achieved using the compounds at the concentrations in question). Plates were incubated at 37° C. with shaking for 16 hours before measuring absorbance at 600 nm. These values were then used to calculate percentage growth at each dilution of compound in comparison to growth in the absence of compound. The following day, the contents of each well were resuspended using a multichannel pipette, and 5 μl from each well was then applied to LB agar plates. These were incubated at 30° C. in a stationary incubator for 16 hours before imaging.

Data set [10] deals with wild-type E. coli (BW25113). Put plainly: Antibacterial MIC/growth assay, wild-type E. coli. Format: cell-based. Particulars: 7.8 to 500 μM, 16 hours at 37° C. The procedure:
as §1

The subject of data set [11] is ΔrfaC mutant E. coli. Put plainly: Antibacterial MIC/growth assay, ΔrfaC mutant E. coli. Format: cell-based. Particulars: 7.8 to 500 μM, 16 hours at 37° C. As for the experimental part: as §1

For orientation: solubility means how much of the substance goes into solution per volume. The term CC50 denotes the concentration that lowers cell viability or growth by half. With `CNC(=O)c1ccc(OCCCN2CCOCC2)cc1NC(=O)c1ccc([N+](=O)[O-])s1` [Compound 53, N-[2-(methylcarbamoyl)-5-[3″-(morpholin-4′″-yl)propoxy]phenyl]-5′-nitrothiophene-2′-carboxamide], the EC50 in [1] came out at 0.044 µM; in data set [3], 3.8 ± 0.5 µM; in data set [4], 0.29 ± 0.1 µM; in data set [5], 0.6 ± 0.2 µg/mL (≈ 1.34 µM). The solubility at 2 h in data set [2] (FASSGF, fassgf or other biorelevant) is above 8000 µM; in [2] (FASSIF), 359 µM (≈ 161 µg/mL); in [2] (FESSIF) it was 4700 µM (≈ 2110 µg/mL); in data set [2] (PBS, aqueous buffer), 29 µM (≈ 13 µg/mL). Besides, the CC50 at 48 h in data set [6] amounted to 16 ± 1 µg/mL (≈ 35.7 µM). Further, the “antileishmanial effect in vivo (liver, spleen, bone marrow infection)” value in [7] (compound alone) is “reasonable antileishmanial effect”. Besides, in data set [7] (delivered (iv) in a liposomal formulation), the “antileishmanial effect in vivo (liver, spleen, bone marrow infection), liposomal formulation” value is recorded as “very effective clearance”. In addition, the “parasitic load after intralesional treatment” value in data set [8] is listed as “effective treatment”. The “inhibition of growth of S. aureus” value in data set [9] is given as “effective at inhibiting the bacteria at low concentrations”. Further, the “inhibition of growth of wild-type E. coli” value in data set [10] is “little effect”. For the same compound, in data set [11], the “inhibition of growth of ΔrfaC mutant E. coli” value was “some reasonable activity”.
